Data taken from PMC6277767, “Broad and Region-Specific Impacts of the Synthetic Cannabinoid CP 55,940 in Adolescent and Adult Female Mouse Brains” (Frontiers in Molecular Neuroscience, 2018).
Read-outs that look alike come from different tables or passages of the source.

Experiments:
CB1 = conditions: cited from earlier work
CB2 = system: CB2; parameters: method as in Felder et al., 1995; conditions: ref Felder et al., 1995; read-out: IC50, inhibition of adenylate cyclase at CB2; cited from earlier work
mice = conditions: cited from earlier work; for catalepsy: single 0.3 mg/kg injection, ref Kow et al., 2014
rats [1] = system: rats; parameters: method as in McGregor et al., 1996; conditions: acute injection of 0.1 mg/kg, ref McGregor et al., 1996; cited from earlier work
[2] = system: CD1 female mouse brain lipidome; test: Brain-region lipid levels (HPLC/MS/MS lipidomics) 2 h after single i.p. 3 mg/kg CP 55,940 vs vehicle; assay type: in vivo; parameters: unit: moles per gram
Protocol: The Bloomington Institutional Animal Care and Use Committee of Indiana University reviewed and approved the animal procedures. Female mice from the CD1 strain were utilized to match our study examining THC’s effects on the brain lipidome ([Leishman et al., 2018]). Mice were given a single i.p. injection of either 3 mg/kg CP or 1:1:18 cremophor:ethanol:saline vehicle (please refer to the section “3 mg/kg CP Is Relevant for Synthetic Cannabinoid Abuse and Has Stronger Effects on the Female Mouse Brain Lipidome During Adolescence” for a justification of dose and use of female mice). Three different age groups were given injections: PND 35 and PND 50 adolescents, and adult mice (PND 113). At least eight mice in each age group received CP and at least eight received vehicle. Matching the THC study time course ([Leishman et al., 2018]), mice were sacrificed via rapid decapitation 2 h after injection. Brains were immediately removed and flash-frozen in liquid nitrogen, and then stored at -80°C until dissections were performed. Brains were dissected on an ice-cold dissection plate into the following regions: STR, HIPP, CER, THAL, CTX, HYP, MID, and STEM. These abbreviations for these brain areas will be used exclusively when discussing the results generated by these specific dissections. Each dissected area was immediately placed in liquid nitrogen and then stored at -80°C until used for lipid extraction.
Tissue extracts were performed as previously described ([Bradshaw et al., 2006]; [Stuart et al., 2013]; [Raboune et al., 2014]; [Leishman et al., 2016a],[b], [2017], [2018]). First, samples were shock frozen in liquid nitrogen, weighed, and transferred to a centrifuge tube. The mass of the largest sample was multiplied by 50 to determine how many milliliters of HPLC-grade methanol (Fisher, Fair Lawn, NJ, United States) to add. Then, samples were spiked with 500 pmol deuterium-labeled NAGly (d8NAGly; Cayman Chemical, Ann Arbor, MI, United States). Samples were placed on ice in darkness for 2 h then individually homogenized and centrifuged at 19,000 × g for 20 min at 20°C. […]
As previously described ([Bradshaw et al., 2006]; [Tan et al., 2006]; [Smoum et al., 2010]; [Stuart et al., 2013]; [Tortoriello et al., 2013]; [Raboune et al., 2014]; [Leishman et al., 2016a],[b], [2017], [2018]), samples were analyzed using an Applied Biosystems API 3000 triple quadrupole mass spectrometer with electrospray ionization (Foster City, CA, United States). […]
This screening library will be referred to as the lipidome when discussing data from this study. HPLC/MS/MS data were analyzed using Analyst software (Applied Biosystems) ([Bradshaw et al., 2006]; [Tan et al., 2006]; [Stuart et al., 2013]; [Tortoriello et al., 2013]; [Raboune et al., 2014]; [Leishman et al., 2016a],[b], [2017], [2018]). […]

rats [3] = system: rats; parameters: method as in Higuera-Matas et al., 2010; conditions: ref Higuera-Matas et al., 2010, cited from earlier work

## CCCCCCC(C)(C)c1ccc([C@@H]2C[C@H](O)CC[C@H]2CCCO)c(O)c1 [CP 55,940]
CB1; cannabinoid receptors, ref Showalter et al., 1996, Besnard et al., 2012
  potency relative to THC: […]
CB1; ref Brents et al., 2011, read-out: EC50, stimulated G-protein binding at CB1
  EC50: 3.4 nM
CB2
  IC50: […]
mice; C57 mice
  catalepsy: produced catalepsy
mice; CB1 KO mice
  catalepsy: not
mice; ref Little et al., 1988, Compton et al., 1992
  ED50 for catalepsy: […]
Rats [1]
  duration of anorexic effects: […]
[2]; cerebellum, PND 50 female mice, 3 mg/kg CP 55,940
  PGF2α level, Mean: 6.11E-11
[2]; hypothalamus, PND 35 adolescent female mice, 3 mg/kg
  PGF2α level, Mean: 3.47E-10
[2]; midbrain, PND 35 WT adolescent female mice, 3 mg/kg
  PGF2α level, Mean: 5.59E-10
[2]; thalamus, PND 50 female mice, 3 mg/kg CP 55,940
  PGF2α level, Mean: 1.3E-10
Rats [3]; female rats, daily 0.4 mg/kg PND 28-38
  cocaine self-administration at PND 75 vs vehicle: […]
Rats [3]; rats, CP during adolescence
  DAT in the caudate-putamen: upregulated
  dopamine D2 receptor levels in the HIPP: decreased
